Laboratory results as given in patent publication US7795263B2, “Pharmaceutical combination for and method of anesthetizing and immobilizing non-domesticated mammals” (Wildlife Laboratories, Inc., priority 2008, dated 2010).

System: captive white-tailed deer (Odocoileus virginianus)
Assay: BAM-1 / BAM-2 in captive white-tailed deer with NTA antagonist reversal (Example 4)
Type: in vivo
Conditions: adult male not recovered after BAM-2 and NTA-1
Method: BAM was administered to captive white-tailed deer (Odocoileus virginianus) at two dose levels (BAM-1 and BAM-2) in an approved-protocol study, to evaluate efficacy, quality of anesthesia, and quality of recovery following administration of tolazoline, atipamezole, and naltrexone antagonists.
The deer of the study were housed in large (0.4-0.8 ha) forested outdoor pens and were fed 17% protein ration with fresh hay and water available ad libitum. The average ambient temperature at time of immobilization and anesthesia was 14.4° C. Temperatures ranged from −1.7 to 25.6° C. […]
Immediately after BAM injection, each deer was released into a 15×20 m observation pen where the time to first noticeable drug effect (e.g., stumbling, gait changes) was recorded, the sternal time (when deer collapsed without rising again) was recorded, the lateral time (when deer lowered head and became immobile) was recorded, and the approachable time (when deer remained immobile and seemed oblivious to its surroundings) was recorded. […]
The heart rate (determined by auscultation), respiration rate (determined by thoracic movements), rectal temperature, and hemoglobin saturation level were recorded at 0, 10, and 20 minutes after recumbency. […] Heart rate readings from pulse oximetry were compared to heart rates as determined by auscultation. […]

c1ccc(CC2=NCCN2)cc1 [tolazoline]
effect of subsequent IM injection of 250 mg tolazoline: led to recovery from anesthesia, with minimal ataxia
